The structures appear in SMILES notation.

In the data set the target is T1, hERG channel (Homo sapiens, UniProt Q12809).
T1 construct: expressed in transfected cells; host or cells: CHO (hERG-CHO), under Geneticin selection
Nature of the data set: hERG channel inhibition, automated patch clamp (IonWorks HT, hERG-CHO). The note with it: CHO cells expressing hERG, 600 s incubation; for inhibition at 600 s, 1 µM: 1 μM compound, read-out: hERG Channel Inhibition % (at 1 μM), vehicle-subtracted values; for inhibition at 600 s, 10 µM: 10 μM compound, read-out: hERG Channel Inhibition % (at 10 μM), vehicle-subtracted values. The class given is cell-based. In short, it runs like this: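 hERG-CHO cells held at 30 °C for 48 h before IonWorks HT patch clamp: from −80 mV to +40 for 2 s, then −50 mV for 2 s tail, repeated three times, before and after 600 s compound exposure. Third-pulse post/pre tail amplitude ratio gave percent inhibition; cells with seal <50 MOhm or tail <250 pA excluded.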
A general note: Block of hERG is tested as a sign of cardiac risk.

T1 sequence (Q12809 whole entry): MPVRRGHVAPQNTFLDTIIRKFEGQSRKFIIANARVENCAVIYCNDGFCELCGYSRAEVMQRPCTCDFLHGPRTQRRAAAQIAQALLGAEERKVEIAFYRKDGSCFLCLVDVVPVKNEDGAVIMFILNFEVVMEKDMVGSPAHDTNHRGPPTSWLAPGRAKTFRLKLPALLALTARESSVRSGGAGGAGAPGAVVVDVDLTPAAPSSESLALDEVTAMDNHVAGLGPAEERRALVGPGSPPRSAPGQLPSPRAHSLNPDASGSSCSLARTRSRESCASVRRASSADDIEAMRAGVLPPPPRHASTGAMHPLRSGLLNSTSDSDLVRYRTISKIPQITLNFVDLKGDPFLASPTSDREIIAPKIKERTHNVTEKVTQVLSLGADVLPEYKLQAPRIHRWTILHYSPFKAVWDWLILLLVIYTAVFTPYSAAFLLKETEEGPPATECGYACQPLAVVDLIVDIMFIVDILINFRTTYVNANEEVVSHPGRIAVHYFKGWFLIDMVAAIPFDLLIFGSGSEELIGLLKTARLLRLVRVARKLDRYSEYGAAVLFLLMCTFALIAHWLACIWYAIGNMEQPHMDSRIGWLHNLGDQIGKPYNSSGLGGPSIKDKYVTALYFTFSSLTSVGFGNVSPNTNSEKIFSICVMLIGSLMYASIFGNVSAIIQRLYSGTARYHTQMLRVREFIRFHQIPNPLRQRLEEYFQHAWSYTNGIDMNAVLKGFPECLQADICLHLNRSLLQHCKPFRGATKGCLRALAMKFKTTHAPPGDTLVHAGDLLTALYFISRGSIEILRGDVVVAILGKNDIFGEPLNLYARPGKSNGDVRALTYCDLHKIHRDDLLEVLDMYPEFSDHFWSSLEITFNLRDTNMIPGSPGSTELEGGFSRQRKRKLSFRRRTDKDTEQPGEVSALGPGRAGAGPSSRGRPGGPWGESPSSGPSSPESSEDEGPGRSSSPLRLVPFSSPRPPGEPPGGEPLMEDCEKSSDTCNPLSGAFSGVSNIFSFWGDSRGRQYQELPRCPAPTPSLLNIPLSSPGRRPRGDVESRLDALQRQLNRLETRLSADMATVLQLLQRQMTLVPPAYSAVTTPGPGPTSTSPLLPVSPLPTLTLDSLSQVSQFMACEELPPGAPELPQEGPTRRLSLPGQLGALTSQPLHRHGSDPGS

In the case of `COc1cc(NC(=O)C(=O)c2c(C)n(Cc3ccc(Cl)cc3)c3cccnc23)ccn1` [Compound 3, 2-(1-(4-chlorobenzyl)-2-methyl-1H-pyrrolo[3,2-b]pyridin-3-yl)-N-(2-methoxypyridin-4-yl)-2-oxoacetamide], the inhibition (as a rule, how much of the control response was suppressed) at 600 s, 1 µM is < 25% and the inhibition at 600 s, 10 µM was in the range of 25 to 50%.

Turning to `COc1ccc2c(c1)c(C(=O)C(=O)Nc1ccnc(OC)c1)c(C)n2Cc1cccnc1` [Compound 78, 2-(5-methoxy-2-methyl-1-(pyridin-3-ylmethyl)-1H-indol-3-yl)-N-(2-methoxypyridin-4-yl)-2-oxoacetamide], the inhibition at 600 s, 1 µM is < 25% and the inhibition at 600 s, 10 µM lay in the range of 25 to 50%.

As to `COc1ccc2c(c1)c(C(=O)C(=O)Nc1ccnc(OC)c1)c(C)n2Cc1ccc(Cl)cn1` [Compound 79, 2-(1-((5-chloropyridin-2-yl)methyl)-5-methoxy-2-methyl-1H-indol-3-yl)-N-(2-methoxypyridin-4-yl)-2-oxoacetamide], the inhibition at 600 s, 1 µM was < 25% and the inhibition at 600 s, 10 µM is < 25%.

With `COc1cc(NC(=O)C(=O)c2c(C)n(Cc3ccc(Cl)cc3)c3cc(OC)c(Cl)cc23)ccn1` [Compound 80, 2-(5-chloro-1-(4-chlorobenzyl)-6-methoxy-2-methyl-1H-indol-3-yl)-N-(2-methoxypyridin-4-yl)-2-oxoacetamide], the inhibition at 600 s, 1 µM is < 25% and the inhibition at 600 s, 10 µM was < 25%.

As for `COc1ccc2c(c1)c(C(=O)C(=O)Nc1ccnc(OC)c1)c(C)n2Cc1ncc(F)cc1F` [Compound 81, 2-(1-((3,5-difluoropyridin-2-yl)methyl)-5-methoxy-2-methyl-1H-indol-3-yl)-N-(2-methoxypyridin-4-yl)-2-oxoacetamide], the inhibition at 600 s, 1 µM was < 25% and the inhibition at 600 s, 10 µM is < 25%.

Turning to `COc1ccc2c(c1)c(C(=O)C(=O)Nc1ccnc(OC)c1)c(C)n2Cc1ncc(Cl)cc1Cl` [Compound 82, 2-(1-((3,5-dichloropyridin-2-yl)methyl)-5-methoxy-2-methyl-1H-indol-3-yl)-N-(2-methoxypyridin-4-yl)-2-oxoacetamide], the inhibition at 600 s, 1 µM is < 25% and the inhibition at 600 s, 10 µM is < 25%.

In the case of `COc1ccc2c(c1)c(C(=O)C(=O)Nc1ccnc(OC)c1)c(C)n2Cc1ccc(C)cn1` [Compound 84, 2-(5-methoxy-2-methyl-1-((5-methylpyridin-2-yl)methyl)-1H-indol-3-yl)-N-(2-methoxypyridin-4-yl)-2-oxoacetamide], the inhibition at 600 s, 1 µM was < 25% and the inhibition at 600 s, 10 µM is < 25%.

`COc1cc(NC(=O)C(=O)c2c(C)n(Cc3ccc(F)cn3)c3ccc(C)cc23)ccn1` [Compound 85, 2-(1-((5-fluoropyridin-2-yl)methyl)-2,5-dimethyl-1H-indol-3-yl)-N-(2-methoxypyridin-4-yl)-2-oxoacetamide]: the inhibition at 600 s, 1 µM was < 25% and the inhibition at 600 s, 10 µM lay in the range of 25 to 50%.

With `COc1ccc2c(c1)c(C(=O)C(=O)Nc1ccnc(OC)c1)c(C)n2Cc1ncc(Cl)cc1F` [Compound 87, 2-(1-((5-chloro-3-fluoropyridin-2-yl)methyl)-5-methoxy-2-methyl-1H-indol-3-yl)-N-(2-methoxypyridin-4-yl)-2-oxoacetamide], the inhibition at 600 s, 1 µM was < 25% and the inhibition at 600 s, 10 µM was < 25%.

Turning to `COc1cc(NC(=O)C(=O)c2c(C)n(Cc3ccc(Cl)cc3)c3cc(F)c(C)cc23)ccn1` [Compound 89, 2-(1-(4-chlorobenzyl)-6-fluoro-2,5-dimethyl-1H-indol-3-yl)-N-(2-methoxypyridin-4-yl)-2-oxoacetamide], the inhibition at 600 s, 1 µM is < 25% and the inhibition at 600 s, 10 µM was < 25%.

`COc1cc(NC(=O)C(=O)c2c(C)n(Cc3ccc(Cl)cn3)c3cc(F)c(C)cc23)ccn1` [Compound 90, 2-(1-((5-chloropyridin-2-yl)methyl)-6-fluoro-2,5-dimethyl-1H-indol-3-yl)-N-(2-methoxypyridin-4-yl)-2-oxoacetamide]: the inhibition at 600 s, 1 µM is < 25% and the inhibition at 600 s, 10 µM was < 25%.

For the molecule `COc1cc(NC(=O)C(=O)c2c(C)n(Cc3ccc(Cl)cc3Cl)c3cc(F)c(OC)cc23)ccn1` [Compound 92, 2-(1-(2,4-dichlorobenzyl)-6-fluoro-5-methoxy-2-methyl-1H-indol-3-yl)-N-(2-methoxypyridin-4-yl)-2-oxoacetamide], the inhibition at 600 s, 1 µM was < 25% and the inhibition at 600 s, 10 µM was < 25%.

As to `COc1cc(NC(=O)C(=O)c2c(C)n(Cc3ccc(Cl)cc3)c3cc(Cl)c(C)cc23)ccn1` [Compound 93, 2-(6-chloro-1-(4-chlorobenzyl)-2,5-dimethyl-1H-indol-3-yl)-N-(2-methoxypyridin-4-yl)-2-oxoacetamide], the inhibition at 600 s, 1 µM is < 25% and the inhibition at 600 s, 10 µM was < 25%.

For `COc1cc(NC(=O)C(=O)c2c(C)n(Cc3ccc(Cl)cn3)c3cc(Cl)c(C)cc23)ccn1` [Compound 94, 2-(6-chloro-1-((5-chloropyridin-2-yl)methyl)-2,5-dimethyl-1H-indol-3-yl)-N-(2-methoxypyridin-4-yl)-2-oxoacetamide], the inhibition at 600 s, 1 µM is < 25% and the inhibition at 600 s, 10 µM was < 25%.

The values are drawn from patent US20150175599A1, “FAAH Inhibitors” (Ironwood Pharmaceuticals, Inc., priority 2010, published 2015).
